Experimental data: patent publication US9254290B2, “Method for screening diabetes treating agent” (GWANGJU INSTITUTE OF SCIENCE AND TECHNOLOGY, priority 2010, dated 2016)
Entries after “also recorded” stand apart in the source; their conditions may differ.

What was measured:
[1] = test system: 3T3-L1 adipocytes; test: 6-NBDG uptake screening in 3T3-L1 adipocytes, 96-well, fluorescent microplate reader; format: cell-based, murine; settings: for effect on insulin-stimulated 6-NBDG uptake: 3 h pre-treatment with inhibitors; for NBDG uptake in adipocytes on re-testing of purified compounds: 250 nM-20 μM, compared with insulin and zinc sulfate; for effect of GLUT inhibitors (4,6-EDG, cytochalasin B) on compound-induced NBDG uptake: with 4,6-EDG (50 mM) or cytochalasin B
Experimental: 3T3-L1 murine fibroblasts were maintained in proliferation media, consisting of DMEM supplemented with 10% FBS, 50 units/mL penicillin and 50 μg/mL streptomycin. 3T3-L1 fibroblasts were induced to differentiate into adipocytes as follows: 48 h postconfluent cells (designated day 0) were cultured in DMEM supplemented 10% FBS, 0.5 mM 3-isobutyl-1-methyl-xanthine, 2 μg/ml dexamethasone, 1 μg/ml insulin, 50 units/mL penicillin and 50 μg/mL streptomycin for 2 days. Every 2 days thereafter, the cells were incubated with fresh DMEM supplemented with 10% FBS and 1 μg/ml insulin. 3T3-L1 adipocytes were used for experiments 8 days after the induction of differentiation.
(§1) Three cell lines were chosen to test if NBDG can be used to detect insulin-stimulated glucose uptake in a 96 well plate culture format, which is more suitable for cell-based screening to identify novel insulin mimetic compounds. The cell lines chosen were Huh7 hepatocytes, C2C12 myoblasts and 3T3-L1 pre-adipocytes, which represent the major body tissue types that are sensitive to the action of insulin (liver, muscle and fat). 10^4 cells/well were seeded in a black, 96 well tissue culture plate (BD Falcon, NJ, USA). C2C12 myoblasts and 3T3-L1 adipocytes were induced to undergo differentiation into myotubes and adipocytes, respectively, to compare the NDBG signal in proliferating and differentiated cells. NBDG uptake was measured following treatment with 10 nM or 100 nM insulin, and 1 μM or 10 μM rosiglitazone (an insulin-sensitizing agent), using a fluorescent microplate reader (SpectraMAX GeminiXS and SoftMax Pro V5 software, Molecular Devices, CA, USA). Cells were cultured in serum-free low glucose culture media for 3 h before the addition of insulin.
To test the NBDG-based screening system, a combinatorial chemical library of 576 triazine-based small molecules was screened at a concentration of 5 μM. The combinatorial library was provided by Professor Young-Tae Chang, Department of Chemistry, National University of Singapore.
To test if this screening protocol could detect new insulin mimetic compounds, a combinatorial chemical library of 576 triazine-based small molecules was screened.

[2] = test system: 3T3-L1 adipocytes and pre-adipocytes; test: Fluorescent microscope analysis of NBDG uptake in mixed cultures of adipocytes and pre-adipocytes; format: cell-based, murine; settings: 10 μM compound; adipocytes vs pre-adipocytes (fibroblast-like)
From the text: (§2) Error=SD. *=P<0.05 compared to 3T3-L1 adipocytes in the same treatment group. […] Data is representative of three independent experiments.

[3] = test system: human aortic endothelial cells (HAEC); test: Monocyte-endothelial cell adhesion assay (THP-1 monocytes, hyperglycemia); format: cell-based; settings: 30 mM glucose; 5 μM compound for 3 hrs before THP-1 monocytes
Experimental: (§3) HAEC were exposed to hyperglycemia (30 mM glucose) for days and treated with 5 μM compounds AP-III-a4 or AP-I-h7 or 100 nM insulin for 3 hrs prior to addition of THP-1 monocytes. […] Data is representative of three independent experiments. 5 mM glucose=normoglycemia; 30 mM glucose=hyperglycemia (5 days treatment); AP-III-a4=hyperglycemia (5 days treatment) and 24 hrs treatment with 5 μM AP-III-a4; AP-I-h7=hyperglycemia (5 days treatment) and 24 hrs treatment with […]; MLB=hyperglycemia (5 days treatment) and 48 hrs treatment with 50 μM magnesium lithospermate B.
Human aortic endothelial cells were supplied by Cambrex (NJ, USA) and cultured in EBM-2 growth media supplemented with the EGM-2 bullet kit. […]
The adhesion of mouse inflammatory peritoneal (IP) exudate macrophages to endothelial cell monlayers was carried out as previously described.^14 Briefly, endothelial cells were cultured to confluence in 6-well culture plates and treated with drug with or without high glucose (30 mM for 48 h) culture media. […] The unbound cells were washed three times with serum-free RPMI-1640 medium, and the total number of adherent cells was counted in four randomly selected optical fields per well (100× magnification; Olympus microscope CKX41, Japan; microscopic images were captured with a DigiEye 330 digital camera (Dewinter, India) and Biowizard 4.3 software (Dewinter, India)). […]

[4] = test system: 3T3-L1 adipocytes; test: Detection of apoptosis (Apo-TRACE staining, microplate quantification); format: cell-based, murine; settings: 5 μM, 24 hrs
Experimental: 3T3-L1 pre-adipocytes were cultured to confluence in 24-well plates and induced to differentiate into adipocytes. The induction of apoptosis was detected using the Apo-TRACE™ Apoptotic Cell Staining Kit (Sigma-Aldrich, SL, USA), which employs a fluorescent compound that responds to alterations in plasma membrane potential and phospholipid scrambling, which are hallmarks of apoptotic cells. Apoptotic cells were visualized by microscopy under UV illumination (Olympus IX81, Japan) equipped with MetaMorph 7.5 image capture software (Molecular Devices, CA, USA)). Images were processed with Photoshop CS4 software (Adobe Systems Incorporated, CA, USA). Apoptosis was quantified by fluorescent microplate reader analysis of cell lysate.

[5] = test system: VCAM-1; test: VCAM-1 expression in HAEC exposed to hyperglycemia (Western blot); format: cell-based, human; settings: 30 mM glucose 5 days; 24 hrs treatment with 5 μM
Experimental: as §3
Human aortic endothelial cells were supplied by Cambrex (NJ, USA) and cultured in EBM-2 growth media supplemented with the EGM-2 bullet kit. THP-1 human monocytic cells were cultured in RPMI-1640 medium supplemented with […] 2-mercaptoethanol, 10% fetal bovine serum and antibiotics. Cells were cultured in growth media containing 5 mM glucose for the normoglycemia condition or 30 mM glucose for the hyperglycemia condition.
Proteins were separated by 10% SDS-PAGE and transferred onto […] nitrocellulose (Bio-Rad, CA, USA). Densitometry was carried out using TINA 2.10e software (Catholic University Medical College (GmBH), Germany).

[6] = test system: 3T3-L1 adipocytes; test: Commercial enzyme-based glucose content assay (Biovision); format: cell-based, murine; settings: tested in triplicate
Experimental: For comparison and validation of our new screening based on NBDG uptake, we used a commercial, enzyme-based glucose assay provided by Biovision Inc., CA, USA. 3T3-L1 adipocytes were seeded at 5×10^4 cells/well in a 96-well culture plate. 24 h later, culture media was changed and adipocytes were cultured in serum-free low glucose DMEM for 3 h prior to drug treatment. Cells were lysed with 100 μL Cell Lytic M (Sigma-Aldrich, SL, USA) and 50 μL lysate was used for assay.

[7] = test system: 3T3-L1 adipocytes; test: Epinephrine-stimulated free fatty acid release assay; format: cell-based, murine; settings: for inhibition of epinephrine-stimulated free fatty acid release: 5 μM compound, 10 μM epinephrine
Experimental: Epinephrine-stimulated free fatty acid (FFA) release from adipocytes was measured using the Free Fatty Acid Quantification Kit (Biovision, CA, USA), following the method previously described^13. Confluent 3T3-L1 adipocytes in a 24 well plate were cultured for 3 h in serum-free culture media. Adipocytes were then treated with 10 μM epinephrine dissolved in saline to induce FFA […] release. Drug of interest was added 10 min before the addition of epinephrine. Cell lysate was collected and 50 μL of the organic phase was used for assay. Palmitic acid was used to generate the standard curve.

[8] = test system: insulin resistant 3T3-L1 adipocytes; test: NBDG uptake in adipocytes rendered insulin resistant with TNF-α; format: cell-based, murine
From the text: as §2

[9] = test system: 3T3-L1 adipocytes; test: Necrosis / cell death by trypan blue exclusion; format: cell-based; settings: 24 h after treatment
Experimental: Necrosis was detected by the ability of cells to exclude the dye, trypan blue. 3T3-L1 adipocytes were cultured to confluence in 6-well plates and treated with drug. Adipocytes were then harvested by trpsinization and resuspended in 1 mL PBS. A 50 μL aliquot was taken and stained with an equal volume of 0.4% trypan blue solution (Sigma, SL, USA). Cells that could not exclude dye were classified as necrotic and quantified using a hemocytometer.

[10] = test system: 3T3-L1 adipocytes; test: 2-NBDG uptake in insulin-responsive cell lines, 96-well; format: cell-based, murine; settings: 10 nM or 100 nM insulin, 30 min; compared to Huh7, C2C12 myoblasts/myotubes, 3T3-L1 pre-adipocytes
Experimental: as §1

[11] = test system: human aortic endothelial cells (HAEC); settings: cited from earlier work
[12] = test system: VCAM-1; settings: cited from earlier work

Question: Which “effect on insulin-stimulated 6-NBDG uptake” value ([1]; 100 nM insulin) does the source give for `CC1OC[C@H]2O[C@H](O)[C@H](O)[C@@H](O)[C@@H]2O1` (stereo partly drawn) [4,6-EDG, 4,6-ethylidine-D-glucose, reference compound] here?
Answer: The value was “reduced insulin-stimulated uptake of 6-NBDG; also recorded: inhibited”.

Question: For `CCCCNc1nc(NCCc2ccccc2)nc(Nc2ccc(CC(=O)NCCOCCOCCN)cc2)n1` [AP-I-h7], which “cell-type preference of NBDG uptake” value [2] is on record?
Answer: Its value is “preferentially taken up in the adipocytes; also recorded: preferentially occurs in adipocytes rather than fibroblasts”.

Question: What about the “NBDG uptake in adipocytes on re-testing of purified compounds” value (from here on “NBDG uptake in adipocytes on re-testing”) [1] of the same compound?
Answer: The value was “can increase NBDG uptake; also recorded: promote NBDG uptake in adipocytes”.

Question: What about the “effect of GLUT inhibitors (4,6-EDG, cytochalasin B) on compound-induced NBDG uptake” value (“effect of GLUT inhibitors” below) [1] of the same compound?
Answer: The value was “sensitive to exo- and endofacial inhibitors of GLUT”.

Question: And the “monocyte adhesion in hyperglycemic conditions” value [3]?
Answer: The value was “decreased monocyte adhesion; also recorded: reduced monocyte adhesion”.

Question: And the induction of apoptosis [4]?
Answer: The induction of apoptosis was “did not induce apoptosis”.

Question: And the “VCAM-1 expression / upregulation in hyperglycemic conditions” value [5]?
Answer: The value was “decreased VCAM-1 upregulation; also recorded: reduced the expression of VCAM-1”.

Question: And the cellular glucose content [6]?
Answer: Its cellular glucose content is “induced an increase in cellular glucose content”.

Question: What about the “concentration required to produce insulin mimetic activity in adipocytes” value [7] of the same compound?
Answer: The value was 5 µM.

Question: And the “inhibition of epinephrine-stimulated free fatty acid release” value [7]?
Answer: The value was “could inhibit epinephrine-stimulated free fatty acid release; also recorded: inhibit 10 μM epinephrine-mediated FFA release”.

Question: What about the “sensitivity of compound-induced NBDG uptake to insulin resistance” value [8] of the same compound?
Answer: The value was “sensitive to the induction of insulin resistance”.

Question: For `NCCOCCOCCNC(=O)Cc1ccc(Nc2nc(NCc3ccc(F)cc3)nc(NCC3CCCCC3)n2)cc1` [AP-III-a4], which “cell-type preference of NBDG uptake” value [2] is on record?
Answer: Its value is “preferentially taken up in the adipocytes; also recorded: preferentially occurs in adipocytes rather than fibroblasts”.

Question: And the “NBDG uptake in adipocytes on re-testing” value [1]?
Answer: The value was “can increase NBDG uptake; also recorded: promote NBDG uptake in adipocytes”.

Question: And the “effect of GLUT inhibitors” value [1]?
Answer: The value was “sensitive to exo- and endofacial inhibitors of GLUT”.

Question: What about the “monocyte adhesion in hyperglycemic conditions” value [3] of the same compound?
Answer: Its value is “decreased monocyte adhesion; also recorded: reduced monocyte adhesion”.

Question: What about the induction of apoptosis [4] of the same compound?
Answer: Its induction of apoptosis is “did not induce apoptosis”.

Question: What about the “VCAM-1 expression / upregulation in hyperglycemic conditions” value [5] of the same compound?
Answer: Its value is “decreased VCAM-1 upregulation; also recorded: reduced the expression of VCAM-1”.

Question: What about the cellular glucose content [6] of the same compound?
Answer: The cellular glucose content was “induced an increase in cellular glucose content”.

Question: What about the “concentration required to produce insulin mimetic activity in adipocytes” value [7] of the same compound?
Answer: The value was 5 µM.

Question: What about the “inhibition of epinephrine-stimulated free fatty acid release” value [7] of the same compound?
Answer: Its value is “could inhibit epinephrine-stimulated free fatty acid release; also recorded: inhibit 10 μM epinephrine-mediated FFA release”.

Question: And the “sensitivity of compound-induced NBDG uptake to insulin resistance” value [8]?
Answer: The value was “sensitive to the induction of insulin resistance”.

Question: With `CCCCNc1nc(Nc2ccc(CC(=O)NCCOCCOCCN)cc2)nc(N2CCCCC2)n1` [AP-IV-e3] as the compound, how does the “induction of cell death (trypan blue exclusion)” value [9] read?
Answer: The value was “induced cell death”.

Question: And the “NBDG uptake in adipocytes on re-testing” value [1]?
Answer: The value was “can increase NBDG uptake; also recorded: promote NBDG uptake in adipocytes”.

Question: And the “effect of GLUT inhibitors” value [1]?
Answer: Its value is “sensitive to exo- and endofacial inhibitors of GLUT”.

Question: What about the induction of apoptosis [4] of the same compound?
Answer: Its induction of apoptosis is “induced apoptosis”.

Question: What does the source list for `NCCOCCOCCNC(=O)Cc1ccc(Nc2nc(NCC3CCCCC3)nc(N3CCCCC3)n2)cc1` [AP-IV-e4]?
Answer: induction of cell death (trypan blue exclusion) [9]: induced cell death; NBDG uptake in adipocytes on re-testing of purified compounds [1]: can increase NBDG uptake; also recorded: promote NBDG uptake in adipocytes; effect of GLUT inhibitors (4,6-EDG, cytochalasin B) on compound-induced NBDG uptake [1]: sensitive to exo- and endofacial inhibitors of GLUT; induction of apoptosis [4]: induced apoptosis

Question: Which “effect on insulin-stimulated 6-NBDG uptake” value ([1]; 100 nM insulin) does the source give for `C=C1[C@@H](C)[C@H]2[C@H](Cc3ccccc3)NC(=O)[C@]23OC(=O)/C=C/[C@H](O)CCC[C@@H](C)C/C=C/[C@H]3[C@@H]1O` [cytochalasin B, reference compound] here?
Answer: The value was “reduced insulin-stimulated uptake of 6-NBDG; also recorded: inhibited”.

Question: Which “effect of GLUT inhibitors” value [1] does the source give for `O=S(=O)([O-])[O-].[Zn+2]` [zinc sulfate, reference compound] here?
Answer: The value was “reduced NBDG uptake”.

Question: With insulin: Insulin from bovine pancreas as the compound, how does the “sensitivity of 6-NBDG uptake in adipocytes to the agent” value ([1]; 1 μM rosiglitazone, 100 nM insulin) read?
Answer: The value was “sensitive”.

Question: What about the “2-NBDG uptake after insulin treatment” value [10] of the same compound?
Answer: The value was “largest increase in 2-NBDG uptake”.

Question: What about the “effect on monocyte-endothelial adhesion (literature)” value [11] of the same compound?
Answer: Its value is “no inhibitory effect on monocyte-endothelial adhesion”.

Question: What about the cellular glucose content [6] of the same compound?
Answer: The cellular glucose content was “induced an increase in cellular glucose content”.

Question: And the “effect on adhesion molecule expression in endothelial cells (literature)” value [12]?
Answer: The value was “not to inhibit adhesion molecule expression”.
